Reference: paper PMC6646438 (Natural Products and Bioprospecting, 2019)

How the values were obtained:
[1] = molecular target: T1, melatonin MT2 receptor (Homo sapiens, UniProt P49286); test: Fluo-8 calcium flux agonist assay in HEK293 cells stably expressing human MT2, dose-response; format: cell-based
T1 construct: gene MTNR1B
T1 sequence (P49286 1-362): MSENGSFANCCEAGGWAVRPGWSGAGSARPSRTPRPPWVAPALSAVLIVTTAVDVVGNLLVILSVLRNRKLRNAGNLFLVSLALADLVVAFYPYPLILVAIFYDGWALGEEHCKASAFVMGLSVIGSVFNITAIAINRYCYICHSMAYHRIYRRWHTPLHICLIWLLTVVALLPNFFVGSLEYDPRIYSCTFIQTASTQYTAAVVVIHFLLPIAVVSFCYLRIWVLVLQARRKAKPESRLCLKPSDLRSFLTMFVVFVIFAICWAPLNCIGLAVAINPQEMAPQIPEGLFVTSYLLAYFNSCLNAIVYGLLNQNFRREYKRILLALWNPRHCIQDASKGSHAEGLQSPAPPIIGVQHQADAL

[2] = molecular target: T2, melatonin MT1 receptor (Homo sapiens, UniProt P48039); test: Fluo-8 calcium flux agonist assay in HEK293 cells stably expressing human MT1, single concentration […]; format: cell-based; conditions: read-out: % agonistic rate at 0.5 mM
T2 construct: gene MTNR1A
T2 sequence (P48039 whole entry): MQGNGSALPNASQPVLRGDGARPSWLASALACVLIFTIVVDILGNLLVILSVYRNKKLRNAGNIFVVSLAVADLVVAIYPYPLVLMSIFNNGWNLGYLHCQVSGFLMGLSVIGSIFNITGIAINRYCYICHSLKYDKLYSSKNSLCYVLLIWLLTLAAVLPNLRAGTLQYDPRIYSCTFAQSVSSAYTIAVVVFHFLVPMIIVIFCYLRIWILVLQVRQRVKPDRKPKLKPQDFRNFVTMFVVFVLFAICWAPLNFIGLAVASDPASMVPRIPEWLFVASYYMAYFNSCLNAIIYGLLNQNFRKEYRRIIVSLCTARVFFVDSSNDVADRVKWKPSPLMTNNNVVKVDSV

Q: Which results are given for `Oc1ccc(Cc2ccc(O)c(Cc3cc(Cc4ccc(O)cc4)c(O)c(Cc4ccc(O)cc4)c3)c2)cc1` [compound 1, gastropolybenzylol G]?
A: EC50 [1]: 76.2 µM; activation at 500 µM [2]: 55.9 ± 4.84%
